# Source: US20080275014A1, “Clobetasol Propionate Shampoos for the Treatment of Seborrheic Dermatitis of the Scalp” (Galderma S.A., priority 2004, published 2008)
# Assay: Clobetasol plasma levels
# Assay type: in vivo, human
# Settings: 45 subject plasma samples; after topical scalp treatment
# Experimental: This study was conducted as a single center, randomized, investigator-masked and competitor comparison of 4 parallel groups involving Psoriasis and Scalp seborrheic dermatitis subjects. The aim of the trial was to evaluate the opthalmological irritation potential and the potential to suppress the HPA axis of Clobetasol Propionate Shampoo, 0.05%. During 4 weeks, psoriasis subjects had to treat their scalp once a day with Clobetasol Shampoo, 0.05% or with Dermoval/Temovate gel. Scalp seborrheic dermatitis subjects had to treat their scalp twice a week with Clobetasol Shampoo, 0.05% or on a day with Dermoval/Temovate gel.
# Each subjects was submitted at each visit (each week during 4 weeks) to the following tests, ocular examination, HPA-axis function, local and general safety. First, opthalmological examination, measurement of intraocular pressure, detection of ocular subjective symptoms such as burning sensation, measurement of far and near visual acuity. Second, they were sampled for serum cortisol levels and were submitted to the Cosyntropin (Synacthene) stimulation assay. Cutaneous safety (skin atrophy using B-Scan ultra-sound and telangiectasis) and adverse events were also recorded. Systemic safety was also assessed by routine laboratory test and detection of Clobetasol Plasma levels, cutaneous safety, and DSS at the end of the study.
smiles,measurement,value
"CCC(=O)O[C@]1(C(=O)CCl)[C@@H](C)C[C@H]2[C@@H]3CCC4=CC(=O)C=C[C@]4(C)[C@@]3(F)[C@@H](O)C[C@@]21C [Clobatasol 17-propionate, clobetasol 17-propionate]",amounts found in subject plasma samples,No detectable amounts
